Experimental data as given in patent US20070135499A1 (Aerie Pharmaceuticals, Inc., priority 2005, published 2007).

Molecular target: T1, hGRK-2 (Homo sapiens, UniProt P25098)
T1 sequence (P25098 1-689): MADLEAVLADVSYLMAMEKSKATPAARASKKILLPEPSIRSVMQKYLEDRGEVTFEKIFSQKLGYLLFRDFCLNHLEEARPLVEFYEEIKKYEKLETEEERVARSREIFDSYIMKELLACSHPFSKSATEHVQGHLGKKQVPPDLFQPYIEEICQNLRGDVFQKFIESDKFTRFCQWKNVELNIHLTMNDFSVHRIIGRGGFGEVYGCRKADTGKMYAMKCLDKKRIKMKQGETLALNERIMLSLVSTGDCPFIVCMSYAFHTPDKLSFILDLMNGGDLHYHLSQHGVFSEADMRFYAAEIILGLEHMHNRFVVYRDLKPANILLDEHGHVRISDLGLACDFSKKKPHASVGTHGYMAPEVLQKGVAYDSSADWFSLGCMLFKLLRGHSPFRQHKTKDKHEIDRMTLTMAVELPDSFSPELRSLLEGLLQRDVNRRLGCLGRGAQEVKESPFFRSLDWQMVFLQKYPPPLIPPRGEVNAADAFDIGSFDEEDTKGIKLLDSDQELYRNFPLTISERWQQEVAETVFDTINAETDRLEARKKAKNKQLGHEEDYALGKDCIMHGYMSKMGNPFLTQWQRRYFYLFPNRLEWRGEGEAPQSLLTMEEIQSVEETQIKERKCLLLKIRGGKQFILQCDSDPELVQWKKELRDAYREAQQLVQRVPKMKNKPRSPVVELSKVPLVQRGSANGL
Test: luciferase-based (Kinase-Glo) biochemical kinase inhibition assay, hGRK-2
Conditions: luciferase assay, casein substrate, 10 μM ATP; read-out: GRK-2 inhibition, Ki class
Protocol: The inhibition of G-protein-coupled receptor kinases including hGRK-2 was determined for the hydrazide compounds using a biochemical assay. The inhibition of GRK-3, GRK-5 and GRK-6 was also determined using the same assay for some of the hydrazide derivatives.
The protein kinase inhibition was determined using a biochemical assay utilizing the light emission of a luciferase reaction. The luciferase-based assay operates on the following reaction principles: [drawing 10]
An inhibitor of GRK-2 will increase in the amount of ATP in solution, as shown. Thus, an inhibitor of GRK-2 will drive the luciferase reaction to the right, resulting in more light emitted. The amount of light emitted is proportional to the inhibition resulting from the GRK-2 inhibitor. The luciferase-based assay was also used to test some of the hydrazides for the inhibition properties towards other kinases.
The test procedure was as follows:
• 50 mM HEPES, pH 7.5 • 10 mM MgCl2 • 100 μM activated sodium orthovanadate • 0.01% CHAPS • 0.1% BSA • 1 mM DTT (added fresh daily) 10× Assay Buffer Stock: • 500 mM HEPES, pH 7.5 • 100 mM MgCl2 • 1 mM activated sodium orthovanadate • 0.1% CHAPS • 1% BSA (leave out for 10× compound dilution buffer) Final Assay Conditions: • 50 μM test compound • 20 μM casein • 10 μM ATP • 50 nM hGRK2 • 4.5% DMSO • 90-120 minute incubation
Stopped by addition of 30 μl 3×-diluted Kinase-Glo reagent containing 0.01% trypan blue. Counted on FUSION plate reader.
Compound Dilution and Transfer
Prepare sufficient buffer containing 40% DMSO to add 20 μl/well to the number of plates being assayed. This buffer should not contain BSA because it will precipitate with addition of 40% DMSO. (EXAMPLE: To make 3000 ml compound dilution buffer: 1200 ml DMSO, 180 ml 10× compound dilution buffer, 1615 ml ultrapure water, 3 ml 1M DTT.).
Using Multidrop, add 20 μl of compound dilution buffer to all wells of the 384-well daughter plate (add 1 μl DMSO to control wells). This will result in a daughter plate which contains 21 μl of ˜500 μM test compound.
Using the PlateTrak, transfer 5 μl of the test compounds to a 384-well, non-binding, white microtiter plate.
Prepare sufficient volume of buffer (with BSA and 1 mM DTT) containing 125 nM GRK2 and 25 μM ATP. (Example: To 219 ml of buffer was added 550 μl 10 mM ATP and 350 μl 79 μM GRK2).
Using Multidrop, add 20 μl of GRK2/ATP mixture to all wells of the microtiter plate.
Prepare sufficient volume of buffer (with BSA and 1 mM DTT) containing 40 μM casein. (EXAMPLE: To 211 ml buffer add 8.8 ml 1 mM casein)
Using Multidrop, add 25 μl to columns 1 through 23 of the microtiter plate. Add 25 μl of complete buffer to column 24 (blanks).
Mix reaction gently by tapping (Multidrop addition of casein does a decent job of mixing), stack plates and incubate at room temperature for between 90 and 120 minutes. Assay progression can be tracked in a separate plate if desired. Target 20-30% ATP consumption. Try to avoid exceeding 40% consumption as kinetics might become non-linear due to substrate (ATP) depletion.
Addition of Kinase-Glo Reagents
The Kinase-Glo reagent can be diluted 3-fold with no loss of data quality in this assay. Additionally, since the library contains many colored compounds which will quench the light emitted from the well resulting in a false negative (kinase inhibitors result in less ATP consumption thus more light emitted), the entire reaction is subject to intentional quench to override this effect. This intentional quench is accomplished by the addition of 0.01% trypan blue to the Kinase-Glo reagents. (EXAMPLE: 100 ml 1× Kinase-Glo reagents (prepared according to product insert), 200 ml assay buffer, 7.5 ml 0.4% trypan blue.
Using Multidrop, add 30 μl to all wells of the assay plate.
Count on FUSION plate reader in luminescence mode.

Structure (SMILES) | Ki [µM]
O=C(COc1cccc(Cl)c1)N/N=C/c1ccncc1 [Example 38, (3-Chloro-phenoxy)-acetic acid [1-pyridin-4-yl-meth-(E)-ylidene]-hydrazide] | > 10
N#Cc1cccc(NCC(=O)N/N=C/c2ccncc2)c1 [Example 39, (3-Cyano-phenylamino)-acetic acid [1-pyridin-4-yl-meth-(E)-ylidene]-hydrazide] | 1 to 10
O=C(CNc1ccccc1)N/N=C/c1ccncc1 [Example 42, Phenylamino-acetic acid [1-pyridin-4-yl-meth-(E)-ylidene]-hydrazide] | 0.1 to 1
O=C(CNc1cccc(Br)c1)N/N=C/c1ccncc1 [Example 44, (3-Bromo-phenylamino)-acetic acid [1-pyridin-4-yl-meth-(E)-ylidene]-hydrazide] | 0.1 to 1
Cc1cccc(NCC(=O)N/N=C/c2ccncc2)c1 [Example 46, (3-Methyl-phenylamino)-acetic acid [1-pyridin-4-yl-meth-(E)-ylidene]-hydrazide] | 1 to 10
O=C(CNc1cccc(I)c1)N/N=C/c1ccncc1 [Example 49, (3-Iodo-phenylamino)-acetic acid [1-pyridin-4-yl-meth-(E)-ylidene]-hydrazide] | 0.1 to 1
O=C(CNc1cccc(C(F)(F)F)c1)N/N=C/c1ccncc1 [Example 50, (3-Trifluoromethyl-phenylamino)-acetic acid [1-pyridin-4-yl-meth-(E)-ylidene]-hydrazide] | 1 to 10
O=C(CNc1ccc(F)cc1)N/N=C/c1ccncc1 [Example 53, (4-fluoro-phenylamino)-acetic acid [1-pyridin-4-yl-meth-(E)-ylidene]-hydrazide] | 1 to 10
O=C(CNc1ccc(C(F)(F)F)cc1)N/N=C/c1ccncc1 [Example 54, (4-Trifluoromethyl-phenylamino)-acetic acid [1-pyridin-4-yl-meth-(E)-ylidene]-hydrazide] | > 10
Cc1ccc(NCC(=O)N/N=C/c2ccncc2)cc1 [Example 56, (4-Methyl-phenylamino)-acetic acid [1-pyridin-4-yl-meth-(E)-ylidene]-hydrazide] | > 10
O=C(CNc1ccc(Cl)cc1)N/N=C/c1ccncc1 [Example 57, (4-Chloro-phenylamino)-acetic acid [1-pyridin-4-yl-meth-(E)-ylidene]-hydrazide] | 1 to 10
CC(C)Oc1cccc(NCC(=O)N/N=C/c2ccncc2)c1 [Example 58, (3-Isopropoxy-phenylamino)-acetic acid [1-pyridin-4-yl-meth-(E)-ylidene]-hydrazide] | 1 to 10
CCc1cccc(NCC(=O)N/N=C/c2ccncc2)c1 [Example 59, (3-Ethyl-phenylamino)-acetic acid [1-pyridin-4-yl-meth-(E)-ylidene]-hydrazide] | 1 to 10
N#Cc1ccc(NCC(=O)N/N=C/c2ccncc2)cc1 [Example 60] | 1 to 10
CC(C)c1cccc(NCC(=O)N/N=C/c2ccncc2)c1 [Example 61, (3-Isopropyl-phenylamino)-acetic acid [1-pyridin-4-yl-meth-(E)-ylidene]-hydrazide] | > 10
CS(=O)(=O)Nc1cccc(NCC(=O)N/N=C/c2ccncc2)c1 [Example 64] | > 10
Cc1ccccc1NCC(=O)N/N=C/c1ccncc1 [Example 65, o-Tolylamino-acetic acid [1-pyridin-4-yl-meth-(E)-ylidene]-hydrazide] | > 10
CCOc1ccccc1NCC(=O)N/N=C/c1ccncc1 [Example 66, (2-Ethoxy-phenylamino)-acetic acid [1-pyridin-4-yl-meth-(E)-ylidene]-hydrazide] | > 10
COc1ccccc1NCC(=O)N/N=C/c1ccncc1 [Example 67, (2-Methoxy-phenylamino)-acetic acid [1-pyridin-4-yl-meth-(E)-ylidene]-hydrazide] | > 10
CCc1ccccc1NCC(=O)N/N=C/c1ccncc1 [Example 68, (2-Ethyl-phenylamino)-acetic acid [1-pyridin-4-yl-meth-(E)-ylidene]-hydrazide] | > 10
CC(C)c1ccccc1NCC(=O)N/N=C/c1ccncc1 [Example 69, (2-Isopropyl-phenylamino)-acetic acid [1-pyridin-4-yl-meth-(E)-ylidene]-hydrazide] | > 10
O=C(CNc1ccccc1Cc1ccccc1)N/N=C/c1ccncc1 [Example 70, (2-Benzyl-phenylamino)-acetic acid [1-pyridin-4-yl-meth-(E)-ylidene]-hydrazide] | 1 to 10
O=C(CNc1ccc(I)cc1)N/N=C/c1ccncc1 [Example 71, (4-Iodo-phenylamino)-acetic acid [1-pyridin-4-yl-meth-(E)-ylidene]-hydrazide] | > 10
CC(=O)Nc1cccc(NCC(=O)N/N=C/c2ccncc2)c1 [Example 72, N-(3-{[1-Pyridin-4-yl-meth-(E)-ylidene-hydrazinocarbonylmethyl]-amino}-phenyl)-acetamide] | > 10
CS(=O)(=O)c1cccc(NCC(=O)N/N=C/c2ccncc2)c1 [Example 73, (3-Methanesulfonyl-phenylamino)-acetic acid [1-pyridin-4-yl-meth-(E)-ylidene]-hydrazide] | 1 to 10
O=C(CNc1ccccc1N1CCCCC1)N/N=C/c1ccncc1 [Example 74, (2-Piperidin-1-yl-phenylamino)-acetic acid [1-pyridin-4-yl-meth-(E)-ylidene]-hydrazide] | > 10
NC(=O)c1ccc(NCC(=O)N/N=C/c2ccncc2)cc1 [Example 75, 4-{[1-Pyridin-4-yl-meth-(E)-ylidene-hydrazinocarbonylmethyl]-amino}-benzamide] | > 10
O=C(CNc1cccc(-n2cncn2)c1)N/N=C/c1ccncc1 [Example 78, (3-[1,2,4]Triazol-1-yl-phenylamino)-acetic acid [1-pyridin-4-yl-meth-(E)-ylidene]-hydrazide] | > 10
O=C(CNc1cccc(C(=O)Nc2cccnc2)c1)N/N=C/c1ccncc1 [Example 80, N-Pyridin-3-yl-3-{[1-pyridin-4-yl-meth-(E)-ylidene-hydrazinocarbonylmethyl]-amino}-benzamide] | 0.1 to 1
O=C(CNc1cccc(-n2cccn2)c1)N/N=C/c1ccncc1 [Example 82, (3-Pyrazol-1-yl-phenylamino)-acetic acid [1-pyridin-4-yl-meth-(E)-ylidene]-hydrazide] | > 10
